Test results taken from PubChem BioAssay AID624361 (Broad Institute, 2012).
Records with an inconclusive call do not appear.

Test system: LMP1-induced NF-kappaB luciferase reporter cells, luminescence
Test: LMP1-induced NF-kB luciferase signal inhibition – cell-based, EBV LMP1, dry powder, set 2, dose response (AID 624361)

In order of rising AC35:
1. CC(C)(C)[S@](=O)N1Cc2cc(C(=O)NCC(F)(F)F)nc(-c3cccc(-c4cccc(F)c4)c3)c2[C@@H]1CCO  8.29 µM
2. O=C(C[C@@H]1CC[C@@H]2[C@H](COC[C@@H](O)CN2Cc2ccc3c(c2)OCO3)O1)Nc1ccc(-c2ccccc2)cc1  10 µM
3. Cc1ccc(S(=O)(=O)N(C)C[C@H]2Oc3cc(C#Cc4ccncc4)ccc3S(=O)(=O)N([C@@H](C)CO)C[C@@H]2C)cc1  10.2 µM
4. O=C(C[C@H]1C[C@H]2c3cc(NS(=O)(=O)c4ccc(F)cc4)ccc3O[C@H]2[C@H](CO)O1)NCc1ccc(Oc2ccccc2)cc1  10.3 µM
5. CN(C)c1ccc2c(c1)[C@@H]1C[C@H](CC(=O)NCc3ccc(Oc4ccccc4)cc3)O[C@@H](CO)[C@@H]1O2  11.4 µM
6. CN1C(=O)c2cc(NC(=O)c3ccc(C(F)(F)F)cc3)ccc2OC[C@@H]2O[C@@H](CC(=O)NC3Cc4ccccc4C3)CC[C@H]21  11.6 µM
7. O=C(C[C@H]1C[C@@H]2c3cc(NS(=O)(=O)c4ccc(F)cc4)ccc3O[C@@H]2[C@@H](CO)O1)NCc1ccc(Oc2ccccc2)cc1  12.3 µM
8. O=C(C[C@@H]1C[C@@H]2c3cc(NS(=O)(=O)c4ccc(F)cc4)ccc3O[C@@H]2[C@@H](CO)O1)NCc1ccc(Oc2ccccc2)cc1  12.3 µM
9. CN(C)c1ccc2c(c1)[C@@H]1C[C@@H](CC(=O)NCc3ccc(Oc4ccccc4)cc3)O[C@H](CO)[C@@H]1O2  12.9 µM
10. C[C@H]1CN([C@@H](C)CO)S(=O)(=O)c2ccc(C#Cc3ccncc3)cc2O[C@H]1CN(C)C(=O)Nc1ccc2c(c1)OCO2  14.8 µM
11. O=C(C[C@H]1CC[C@H]2[C@@H](COC[C@@H](O)CN2Cc2ccc3c(c2)OCO3)O1)Nc1ccc(-c2ccccc2)cc1  16.1 µM
12. CN(C)C(=O)c1cccc(-c2cccc(-c3nc(C(=O)NCc4ccccc4)cc4c3[C@@H](CCO)N([S@](=O)C(C)(C)C)C4)c2)c1  16.5 µM
13. COc1cccc(C#Cc2ccc([C@@H]3[C@@H](C#N)N(C(=O)c4ccccn4)[C@@H]3CO)cc2)c1  18 µM
14. C[C@@H]1CN([C@H](C)CO)S(=O)(=O)c2ccc(/C=C/c3ccccc3)cc2O[C@H]1CN(C)C(=O)NC1CCCCC1  19.3 µM
15. COc1cccc(S(=O)(=O)N(C)C[C@H]2Oc3cc(C4=CCCCC4)ccc3S(=O)(=O)N([C@@H](C)CO)C[C@@H]2C)c1  20.2 µM
16. COc1ccccc1C#Cc1ccc2c(c1)O[C@H](CN(C)Cc1cccnc1)[C@H](C)CN([C@H](C)CO)S2(=O)=O  20.3 µM
17. N#C[C@H]1[C@H](c2ccc(C#Cc3ccccc3F)cc2)[C@H](CO)N1C(=O)c1cccnc1  20.8 µM
18. COc1ccc(-c2cccc(-c3nc(C(=O)NCC(F)(F)F)cc4c3[C@H](CCO)N([S@@](=O)C(C)(C)C)C4)c2)cc1  21.5 µM
19. C[C@@H]1CN([C@@H](C)CO)S(=O)(=O)c2ccc(C#C[C@@H](C)O)cc2O[C@H]1CN(C)Cc1ccc(-c2ccccc2)cc1  21.5 µM
20. O=C(Nc1ccc(C(F)(F)F)cc1)Nc1ccc2c(c1)[C@H]1C[C@@H](CC(=O)N3CCc4ccccc4C3)O[C@@H](CO)[C@H]1O2  21.7 µM
21. Cc1noc(C)c1S(=O)(=O)Nc1ccc2c(c1)C(=O)N([C@H](C)CO)C[C@H](C)[C@@H](CN(C)Cc1ccc(C(F)(F)F)cc1)OCCCC[C@H](C)O2  22.1 µM
22. COc1cccc(S(=O)(=O)N(C)C[C@@H]2Oc3cc(C4=CCCCC4)ccc3S(=O)(=O)N([C@H](C)CO)C[C@H]2C)c1  23.4 µM
23. O=C(C[C@@H]1C[C@H]2c3cc(NC(=O)c4ccc5c(c4)OCO5)ccc3O[C@H]2[C@H](CO)O1)NC1CCCCC1  24 µM
24. O=C(C[C@H]1C[C@@H]2c3cc(NC(=O)c4ccc5c(c4)OCO5)ccc3O[C@@H]2[C@@H](CO)O1)NCc1ccc(Oc2ccccc2)cc1  26.6 µM
25. Cc1noc(C)c1S(=O)(=O)Nc1ccc2c(c1)C(=O)N([C@H](C)CO)C[C@H](C)[C@H](CN(C)Cc1ccc(C(F)(F)F)cc1)OCCCC[C@H](C)O2  27.8 µM
26. CC(C)NC(=O)N1Cc2cc(C(=O)NC3Cc4ccccc4C3)nc(-c3cccc(-c4cccnc4)c3)c2[C@H]1CCO  28.2 µM
27. COc1ccc(NC(=O)N(C)C[C@@H]2Oc3cc(C#CCC(C)C)ccc3S(=O)(=O)N([C@@H](C)CO)C[C@@H]2C)cc1  28.3 µM
28. CC(C)(C)[S@@](=O)N1Cc2cc(C(=O)NCc3ccccc3F)nc(-c3cccc(-c4cccnc4)c3)c2[C@H]1CCO  29.5 µM
29. C[C@@H]1CN([C@@H](C)CO)C(=O)Cc2cc(NC(=O)Cc3ccccc3)ccc2O[C@H]1CN(C)Cc1ccc(C(F)(F)F)cc1  30 µM
30. CCCNC(=O)c1cc2c(c(-c3cccc(-c4cccc(F)c4)c3)n1)[C@H](CCO)N([S@@](=O)C(C)(C)C)C2  30.6 µM
31. COc1ccccc1C#Cc1cnc2c(c1)C(=O)N([C@@H](C)CO)C[C@H](C)[C@@H](CN(C)C(=O)c1ccc3c(c1)OCO3)O2  31.2 µM
32. Cc1noc(C)c1S(=O)(=O)Nc1ccc2c(c1)C(=O)N([C@@H](C)CO)C[C@@H](C)[C@@H](CN(C)Cc1ccc(C(F)(F)F)cc1)OCCCC[C@H](C)O2  32.8 µM
33. Cc1noc(C)c1S(=O)(=O)Nc1ccc2c(c1)C(=O)N([C@H](C)CO)C[C@H](C)[C@H](CN(C)Cc1ccc(C(F)(F)F)cc1)OCCCC[C@@H](C)O2  33.8 µM
34. N#C[C@H]1[C@@H](c2ccc(-c3cccnc3)cc2)[C@@H](CO)N1C(=O)Nc1ccc(F)cc1  34.3 µM
